The subject of this experiment is HEK293 cells, ROS production inhibition counter-screen. Kind of experiment: ROS production inhibition in HEK293 cells, late-stage follow-up, counter-screen for NOX1 inhibitor project, cell-based, IC50, set 2 (AID 435002). On the technique in general: The purpose of a counterscreen is to sort out artefacts and off-target activity.

With `CN(C)c1ccc(NC(=O)Nc2ccc(OCc3ccccc3)cc2)cc1`, the IC50 (in general, the point on the concentration scale where inhibition reaches its midpoint) was 2370 nM. As for `COc1cc(-c2nc(-c3ccccc3)c(-c3ccccc3)[nH]2)ccc1O`, the IC50 was 1810 nM. The figure for `Cc1cc(Cl)ccc1NC(=S)NNC(=S)Nc1ccc(F)cc1` is 960 nM; for `FC(F)(F)c1ccc2c(c1)Nc1ccccc1S2` it is 1000 nM.

These data come from PubChem BioAssay AID435002 (The Scripps Research Institute Molecular Screening Center, 2010).
